Results: patent US8663604B2, “Method for measuring neurotransmitters in vivo” (The Regents of the University of California, priority 2007, dated 2014)

Key:
[1] = target: T1, M1 muscarinic acetylcholine receptor (Rattus norvegicus, UniProt P08482); assay: In vitro two-photon FRET response of M1-TN-XXL neurofluocytes to bath-applied neurotransmitters; type: cell-based; settings: ACh applied at 10 nM to 10 μM via bath perfusion
T1 construct: expressed in transfected cells
T1 sequence (P08482 1-460): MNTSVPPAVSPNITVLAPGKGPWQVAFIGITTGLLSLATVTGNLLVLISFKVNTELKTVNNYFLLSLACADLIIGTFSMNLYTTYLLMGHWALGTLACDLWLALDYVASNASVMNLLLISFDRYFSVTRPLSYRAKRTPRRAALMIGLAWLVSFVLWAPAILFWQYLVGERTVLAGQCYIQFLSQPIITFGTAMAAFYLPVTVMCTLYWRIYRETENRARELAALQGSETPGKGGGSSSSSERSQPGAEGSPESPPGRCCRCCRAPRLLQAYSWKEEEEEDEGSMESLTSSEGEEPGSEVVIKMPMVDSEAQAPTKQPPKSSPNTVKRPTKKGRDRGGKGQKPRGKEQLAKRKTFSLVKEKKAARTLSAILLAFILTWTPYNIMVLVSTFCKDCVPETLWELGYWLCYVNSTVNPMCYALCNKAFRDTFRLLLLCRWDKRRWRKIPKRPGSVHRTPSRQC
From the text: The state of each cell is imaged with in vivo two-photon laser scanning microscopy (TPLSM). In another implementation, HEK293 cells were transfected with the Ca^2+-coupled M1 muscarinic receptor and the genetically encoded FRET-based Ca^2+ biosensor TN-XXL. In the presence of acetylcholine (ACh), a M1-mediated Ca^2+ increase is transduced by TN-XXL into a FRET-based optical signal.
ACh-neurofluocytes expressing a muscarinic receptor and fluorescent protein. […] These cells are referred to here as M1-TN-XXL neuro-fluocytes. HEK-293 cells were transduced with lentiviruses modified to carry the M1 muscarinic acetylcholine receptor or the TN-XXL FRET intracellular calcium indicator as transgenes. Clonal cells were selected subsequently based on the highest response to acetylcholine in vitro.
M1-TN-XXL neurofluocytes. ACh-neurofluocytes were tested in vitro for their sensitivity to acetylcholine. […] FIG. 2a provides a diagram of the detection mechanism.

[2] = target: T2, ionotropic receptor 5-HT3A (Rattus norvegicus, UniProt P35563); assay: In vitro response of HEK cells transiently cotransfected with 5-HT3A and TN-XXL to bath-applied serotonin; type: cell-based; settings: 3-10 μm serotonin applied in the bath
T2 construct: expressed in transfected cells; host or cells: HEK cells, transient co-transfection with TN-XXL
T2 sequence (P35563 24-483): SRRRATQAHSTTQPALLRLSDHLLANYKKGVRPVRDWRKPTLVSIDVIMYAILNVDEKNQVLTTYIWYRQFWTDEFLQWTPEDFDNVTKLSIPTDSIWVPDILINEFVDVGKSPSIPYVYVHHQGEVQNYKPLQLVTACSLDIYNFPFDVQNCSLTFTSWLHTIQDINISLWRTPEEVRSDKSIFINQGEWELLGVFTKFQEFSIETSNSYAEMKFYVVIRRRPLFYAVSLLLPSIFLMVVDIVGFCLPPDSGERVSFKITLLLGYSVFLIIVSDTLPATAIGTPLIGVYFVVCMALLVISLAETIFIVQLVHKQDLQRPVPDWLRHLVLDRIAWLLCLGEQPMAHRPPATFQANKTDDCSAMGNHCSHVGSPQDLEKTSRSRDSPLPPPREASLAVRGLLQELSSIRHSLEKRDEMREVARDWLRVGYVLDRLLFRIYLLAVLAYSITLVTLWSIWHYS

muscarinic receptors = assay: Response of implanted neurofluocytes to NBM stimulation after intracerebral injection of antagonist
Description: Urethane-anesthetized rats were injected with HEK293 cells loaded with Calcium Green in the cerebral cortex and a bipolar stimulating electrode was implanted in NBM together with ECoG-recording electrodes to detect desynchronization in cerebral cortex upon NBM stimulation.
A similar set of experiments was conducted with stably transfected M1-TN-XXL neurofluocytes.

Row | Structure (SMILES) | FRET response / sensitivity of ACh-neurofluocytes to neurotransmitter [1] | response of 5-HT3A/TN-XXL cells [2] | effect on responses of neurofluocytes to NBM stimulation (muscarinic receptors)
1 | NCCCC(=O)O [GABA] | insensitive | – | –
2 | N[C@@H](CCC(=O)O)C(=O)O [glutamate] | insensitive | – | –
3 | NCCc1c[nH]c2ccc(O)cc12 [serotonin] | insensitive | responded robustly | –
4 | CN1[C@@H]2CC[C@H]1C[C@@H](OC(=O)C(CO)c1ccccc1)C2 (stereo partly shown) [atropine] | – | – | abolished
5 | NCCc1ccc(O)c(O)c1 [dopamine] | insensitive | – | –
6 | NC[C@H](O)c1ccc(O)c(O)c1 [norepinephrine] | insensitive | – | –
